Assay results published in US9078851B2, “Composition for preventing or treating a spinal cord injury” (UNIVERSITY-INDUSTRY COOPERATION GROUP OF KYUNG HEE, priority 2009, dated 2015).

Columns and labels:
Format in all cases: in vivo, rat
[1] = system: activated microglia/macrophage; assay: Immunofluorescence staining of ED1 at spinal cord injury site; conditions: 5 nmol/kg tail vein at immediately, 24 h, 48 h after spinal cord injury; 5 days after operation; vs control, rostal to caudal area
Protocol: (§1) For the present experiment, male white mice (Sprague-Dawley 240-250 g, 7 weeks, 10 mice) were under general anesthetics by an intraperitoneal injection of Ketamin (80 mg/kg, Yuhan Corporation) and Rompun (7.4 mg/kg, Bayer Korea Corporation). Laminectomy was performed at spine T9-10 level to expose a spinal cord keeping intact dura. And then, rat was put on Spinal cord dropping device (NYU); spine processes at T8 and T11 sites were fixed by using a clamp, respectively; then, a rod (diameter 2 mm, weight 10 g) was dropped from 25 mm height vertical to dorsal part of spinal cord followed by suturing injury site muscle and skin. The rat of Sham-operated control group was performed only laminectomy at same area without damaging spinal cord injury (marked by ‘sham” in figures; hereinafter, the same as above).
Substance P (marked by ‘SP’ in figures; hereinafter, the same as above) dissolved in saline of 5 nmol/kg concentration was injected through tail vein at immediately, 24 hours, and 48 hours after a spinal cord injury for experimental groups. At sham control group, same volume of saline (marked by ‘vehicle’ in figures; hereinafter, the same as above) without Substance P was injected at same time points. Operation were performed on an electric heating pad of 37° C., and then rat were transferred to cage after awake from the anesthetic. • (2) Preparation of Tissue […]

[2] = system: TNF-α, IL-1β, IL-6, iNOS, IL-10 mRNA at spinal cord injury site; assay: RT-PCR analysis of cytokine mRNA in injured spinal cord; conditions: 5 nmol/kg tail vein
Protocol: as §1
Substance P (marked by ‘SP’ in figures; hereinafter, the same as above) dissolved in saline of 5 nmol/kg concentration was injected through tail vein at immediately, 24 hours, and 48 hours after a spinal cord injury for experimental groups. At sham control group, same volume of saline (marked by ‘vehicle’ in figures; hereinafter, the same as above) without Substance P was injected at same time points. Operation were performed on an electric heating pad of 37° C., and then rat were transferred to cage after awake from the anesthetic. • (2) Preparation of Tissue
Substance P (5 nmol/kg in saline) or saline (the same volume without Substance P) was injected through tail vein at various time points at immediately, 1 d, 2d after operation as (1) of Example 1. At 1 hour, 6 hours, 1 day, 3 days, and 5 days, the experimental group (6 rats/group) and the control (6 rats/group) were sacrificed, respectively. After exposing a spinal cord by laminectomy, spin cord with a length of 1 cm, the injury site between T9-10 as the central, was quickly cut off, and immediately put into liquid nitrogen. Total RNA was extracted by using Trizol reagent (Invitrogen), and the cDNA was synthesized through Reverse transcription process. Then, PCR (Chromagen) was performed using primers of TNF-α IL-1β iNOS. Primer's sequences and PCR conditions were as follows.

[3] = system: M2 (ED1 positive, CD206 positive) phenotype macrophages; assay: MACS assay of M1/M2 phenotype macrophages in spinal cord injury model; conditions: tail vein injection, five days after spinal cord injury
Protocol: as §1, with “The rat of Sham-operated control group was performed only laminectomy at same area without damaging spinal cord injury (marked by ‘sham” in figures; hereinafter, the same as above).” left out
Microglia and macrophage have an inflammatory macrophage phenotype (M1) and selectively activated macrophage phenotype (M2). […] MACS (Miltenyi Biotec, Bergisch Gladbach) assay was performed in order to determine a quantitative amount of M1 (ED1 positive, CD206 negative) and M2 (ED1 positive, CD206 positive) phenotype macrophages after Substance P-injection in a spinal cord injury model.
At immediately, 1 d, 2d, Substance P or saline (the same volume without Substance P) was injected to a tail vein after a spinal cord injury, using the same method as (1) of Example 1. […] Magnetically labeled cells were collected by washing the column and then counted. […]

[4] = 1 hour after spinal cord injury, vs control

Substance P
activated microglia/macrophage expressing ED1 antigen [1]: significantly decreased | expression of IL-1β mRNA [2, 4]: slightly decreased | expression of IL-6 mRNA [2, 4]: slightly decreased | expression of TNF-α mRNA [2, 4]: slightly decreased | expression of iNOS mRNA [2, 4]: slightly decreased | increase of expression of IL-10 mRNA ([2]; 6 hours after spinal cord injury, vs control): at least 17 times | expression of iNOS ([2]; one day after spinal cord injury): surely decreased | expressions of inflammatory cytokines (TNF-α, IL-1β, IL-6, iNOS mRNAs) ([2]; other times than 1 hour, between two groups): do not have a difference | expression of IL-10 mRNA ([2]; up to 3 day after spinal cord injury, vs control): persist increasing level | CD-206 positive percentage as compared with the control [3]: about 6.5 times | activated microglia/macrophages CD-206 positive [3]: 58.7%
